Read-outs that look alike come from different tables or passages of the source.
Columns and labels:
[1] = design: method as in earlier work; details: experimental value; ref https://comptox.epa.gov/dashboard, https://echa.europa.eu/es/information-on-chemicals; cited from earlier work
[2] = PBT assessment (persistence, bioaccumulation and FET toxicity combined, logical AND); details: persistent, bioaccumulative and toxic all positive
Procedure: (§1) Acute toxicity was determined using the OECD236 fish embryo acute toxicity (FET) test (OECD guidelines). To assess the PBT potentiality of the analysed compounds, persistence and the logKow as a measure of bioaccumulation were extracted from public databases (https://comptox.epa.gov/dashboard, and https://echa.europa.eu/es/information-on-chemicals).
Ecotoxicity of selected compounds was screened with the FET assay to determine acute toxicity and using available predictions of persistence and bioaccumulation.

[3] = logKow as a measure of bioaccumulation, extracted from public databases; type: physicochemical; details: yes/no by logKow, REACH cut off 4,5
[4] = tested on: androgen and oestrogen receptors; assay: ED assays of androgen and oestrogen receptors (overall experimental ED result); type: cell-based
Procedure: The transcriptional activation of androgen receptor (AR) assays was carried out by adapting the OECD protocol 458 (OECD [2020]).
MDA-MB-453 cells (8000 cells/well) expressing an AR luciferase reporter were seeded into 384 white plates (Greiner 781098) in culture medium (DMEM (ATCC), 10% foetal bovine serum (Sigma Aldrich), 1% penicillin–streptomycin (Sigma-Aldrich), 75 µg/ml geneticin (Gibco) and incubated overnight at 37 °C 5% CO2 and 95% humidity. After this time, the cell culture medium was discarded and replaced by assay medium (DMEM (ATCC), 0.1% foetal bovine serum (Sigma-Aldrich), and 1% penicillin–streptomycin (Sigma Aldrich)).
For studying a putative agonist effect, compounds were added to the assay plate using an Echo 550 acoustic liquid handler and incubated overnight at 37 °C 5% CO2 and 95% humidity. For studying the putative antagonist effect, compounds were added using an Echo 550 acoustic liquid handler and incubated for 15 min at 37 °C 5% CO2 and 95% humidity. Then, 1 nM 5α-dihydrotestosterone (DHT) was added, and the cell plate was incubated overnight at 37 °C, 5% CO2, and 95% humidity. After compound incubation, the cell medium was removed, 5 µl of lysis buffer 1X (Promega) was added, and the cell plate was incubated with agitation 15 min at room temperature. A freeze–thaw cycle of 10 min at −80 °C and room temperature was performed. Then 25 µl of luciferase assay reagent (Promega) was added and luminescence was determined on an EnSpire plate reader (Perkin Elmer). Data was fitted to a four-parameter sigmoidal model with Prism 5.1 (Graphpad, Inc).
The transcriptional activation of oestrogen receptor (ER) assay was carried out by adapting the OECD protocol 455 (OECD [2021]) and the method of Li et al. ([2013]).
ER luciferase reporter T47D cells (5000 cells/well) were seeded into 384 white plates (Greiner 781098) in culture medium (RPMI 1640 (Thermo Fisher Scientific 52400), 10% foetal bovine serum (Sigma Aldrich F9665), 1% penicillin–streptomycin (Sigma-Aldrich P0781), 75 µg/ml Geneticin (Gibco 10131)) and incubated overnight at 37 °C and 5% CO2. The following day, the cell culture medium was discarded and replaced by assay medium (RPMI 1640 (Thermo Fisher Scientific 52,400), 0.1% foetal bovine serum (Sigma Aldrich F9665), and 1% penicillin–streptomycin (Sigma Aldrich P0781).
The assay was performed as stated before for the AR assay using 17β-estradiol as agonist instead of DHT.
ED was assessed by transactivation in vitro assays to identify agonists and antagonists of the androgen and oestrogen receptors.
Also, the experimental group analysed the endocrine-disrupting activity for the CMR compounds.

thyroid system = details: cited from earlier work
zebrafish embryos = details: FET assay
Procedure: as §1

Row | SMILES | Bioaccumulation (logKow) [1] | Bioaccumulation [3] | Experimental result ([4]; endocrine disruptor yes/no) | Potential PBT [2] | further results
1 | Clc1cc(Cl)c(Cl)c(Cl)c1Cl [1,2,3,4,5-Pentachlorobenzene] | 5.17 | Yes |  |  | Potential PBT ([2]; listed as Pentachlorobenzene): YES; Potential PBT ([2]; listed as pentachlorobenzene): potential PBT compounds
2 | Clc1cc(Cl)c(Cl)c(Cl)c1 [1,2,3,5-Tetrachlorobenzene] | 4.61 | Yes | No | YES | endocrine-disrupting activity (thyroid system; ref Chu et al. [1983], den Besten et al. [1991]): thyroid system affection; Potential PBT ([2]; listed as 1,2,3,5-tetrachlorobenzene): potential PBT compounds
3 | Oc1cc(Cl)cc(Cl)c1Cl [2,3,5-Trichlorophenol] | 3.84 | No |  | not a potential PBT compound | Experimental result [4]: Yes
4 | ClC1C(Cl)C(Cl)C(Cl)C(Cl)C1Cl (stereo not drawn) [(1α,2α,3α,4β,5α,6β)-1,2,3,4,5,6-Hexachlorocyclohexane] | 3.95 | No |  |  | acute toxicity (zebrafish embryos): highly toxic
5 | O=C(O)C(F)(F)C(F)(F)C(F)(F)C(F)(F)F [Nonafluorovaleric acid] |  |  | No |  | endocrine-disrupting activity (thyroid system; ref Coperchini et al. [2021], Croce et al. [2019]): thyroid system affection
